Experimental data as given in patent publication US5098925A, “Spiro-dihydroisoindole compounds” (ICI Americas Inc., priority 1990, dated 1992).

Tests used:
[1] = target: phencyclidine (PCP) receptor of the NMDA receptor complex; experiment: [3H]-TCP binding (displacement of specific [3H]TCP binding); design: species or system Sprague-Dawley rats; settings: [3H]-TCP 2.5 nM; rat cortex/hippocampus synaptic membranes; 30 min, 37° C., pH 7.7; read-out: IC50 value, 50% inhibition of total specific [3H]TCP binding
Source text: The actions of compounds of formula I as an antagonist at the phencyclidine (PCP) receptor of the NMDA receptor complex can be shown using known in vitro tests, for example that described in Vignon et al., Brain Research, 280, 194-197 (1983). Vignon et al. disclose that tritiated N-(1-[2-thienyl]cyclohexyl)-3,4-[^3 H]-piperidine (also abbreviated as [^3 H]-TCP) binds to PCP binding sites (e.g. in rat brains) more strongly than PCP itself. […] [^3 H]-TCP thus provides a useful tool for measuring the binding affinities of compounds which bind to PCP receptors such as the PCP site in the NMDA receptor complex.
Specifically when it is desired to measure the binding affinity of a compound of formula I, a source of (brain) NMDA receptors is generated by preparing neuronal synaptic membranes from adult Sprague-Dawley rats. In brief, freshly dissected cortices and hippocampi were homogenized in 0.32 M sucrose (100 mg/ml). […]
The procedure for [^3 H]-TCP binding is adapted from Vignon et al. (1983). […] Non-specific binding is determined with 100 μM MK-801, a […] well known and characterized in the art as set forth for example, in European Patent Application 0 230 370, published July 29, 1987. […] Radioactivity is measured by liquid scintillation counting. The specific activity of the [^3 H]TCP is used to convert the radioactivity measured to concentration [^3 H]TCP bound. […]

[2] = tested on: neuronal damage in the hippocampus; experiment: gerbil ischemic model (bilateral carotid occlusion, neuronal damage in the hippocampus); type: in vivo, Mongolian gerbils; settings: ip dose of 60 mg/kg
Procedure: Typically an animal is rendered ischemic, for example, for transient occlusion of the carotid artery. A test compound is then administered to said ischemic animal at or about the time of the ischemica event. The ability of the test compound to reduce or prevent neurological degeneration may then be assessed, for example, by sacrificing the animal, followed by conventional histological examination of suitable brain tissue. For example, the following is a description of a suitable test in vivo using the gerbil model.
When testing in vivo using the gerbil ischemic model, adult female Mongolian gerbils (50-70 g) are anesthetized with 2 to 3% halothane. The bilateral common carotid arteries at the neck are exposed and occluded with microaneurysm clips. After 10 min (unless specified), the clips are removed and the blood flow through the carotid arteries is restored and the skin is sutured. […] Gross behavioral observations along with motor activity are recorded for 2 hr on the first (24 hr) day following the occlusion. […]
Sections (7 micron) are evaluated from each brain. […] The average brain damage rating score for each group is recorded, and the damage scores of the drug treated group are compared to the vehicle-treated group using Wilcoxcon ranks sum test.

SMILES | IC50 [1] | neuroprotective effect [2] | overt toxic effects [2]
COc1cccc2c1CCC21NCc2ccccc21 (stereo not shown) [Example 18, 4-Methoxyspiro[indan-1,1'-(1,3-dihydroisoindole)]] | 5 µM |  | 
c1ccc2c(c1)CNC21CCCc2sccc21 (stereo not shown) [Example 20, Spiro[4,5,6,7-tetrahydrobenzothiophene-4,1'-(1,3-dihydroisoindole)]] | 0.6 µM |  | 
CN1Cc2ccccc2C12CCCc1sccc12 (stereo not shown) [Example 21, 2'-Methylspiro[4,5,6,7-tetrahydrobenzothiophene-4,1'-(1,3-dihydroisoindole)]] |  | significant neuroprotective effect | without any overt toxic effects
